From patent US10869844B2, “Methods for the treatment of depression” (Janssen Pharmaceutica NV, priority 2014, dated 2020)
Like-named read-outs stand apart in the source and are kept apart here.

How the values were obtained:
[1] = tested on: adult subjects with TRD; format: in vivo, human; settings: for Non-responders % / Non-responders N / Responders % (MADRS total score reduction >50% TRD2001, ≥50% TRD2002) / Responders N (MADRS total score reduction >50% TRD2001, ≥50% TRD2002): after first infusion (Day 2 TRD2001, Day 3 or 4 TRD2002)
Protocol: Association between changes in MADRS total score from baseline and the SNP rs6265 after a single dose was evaluated in placebo subjects and active subjects using an ANCOVA model under a dominant model with baseline MADRS total score, and grouped genotype (Val/Val or Met carrier). A statistically significant result was found in active subjects (p=0.02).
Association between the % responders and the SNP rs6265 after a single dose was evaluated in placebo subjects and active subjects using a logistic regression model under a dominant model with baseline MADRS total score and grouped genotype (Val/Val or Met carrier). A statistically significant result was found in active subjects (p=0.03).
Association between the % remitters and the SNP rs6265 after a single dose was evaluated in placebo subjects and as well as in active subjects using a logistic regression model under a dominant model with baseline MADRS total score and grouped genotype (Val/Val or Met carrier).

[2] = tested on: adult subjects with TRD; settings: for Day 17 responders who maintained response status up to Day 35, % / Day 17 responders who maintained response status up to Day 35, number: esketamine subjects per Day 1 randomization
[3] = tested on: NMDA receptor; settings: S-enantiomer compared with ketamine; cited from earlier work
[4] = Met carriers, DAY 02, randomized to esketamine Day 1
[5] = Met carriers, DAY 07, randomized to esketamine Day 1
[6] = Met carriers, DAY 07, randomized to placebo Day 1, esketamine from day 4 onward
[7] = Met carriers, DAY 17, randomized to esketamine Day 1
[8] = Met carriers, DAY 17, randomized to placebo Day 1, esketamine from day 4 onward
[9] = Met carriers, DAY 35, randomized to esketamine Day 1
[10] = Met carriers, DAY 35, randomized to placebo Day 1, esketamine from day 4 onward
[11] = Met carriers, Day 0 after Day 17, all responders (Day 17)
[12] = Met carriers, Day 0 after Day 17, esketamine responders (Day 17) per Day 1 randomization
[13] = Met carriers, Day 4 after Day 17, all responders (Day 17)
[14] = Met carriers, Day 4 after Day 17, esketamine responders (Day 17) per Day 1 randomization
[15] = Met carriers, Day 18 after Day 17, all responders (Day 17)
[16] = Met carriers, Day 18 after Day 17, esketamine responders (Day 17) per Day 1 randomization
[17] = Val/Val (of 7), 18 days after last dose
[18] = Val/Val, DAY 02, randomized to esketamine Day 1
[19] = Val/Val, DAY 07, randomized to esketamine Day 1
[20] = Val/Val, DAY 07, randomized to placebo Day 1, esketamine from day 4 onward
[21] = Val/Val, DAY 17, randomized to esketamine Day 1
[22] = Val/Val, DAY 17, randomized to placebo Day 1, esketamine from day 4 onward
[23] = Val/Val, DAY 35, randomized to esketamine Day 1
[24] = Val/Val, DAY 35, randomized to placebo Day 1, esketamine from day 4 onward
[25] = Val/Val, Day 0 after Day 17, all responders (Day 17)
[26] = Val/Val, Day 0 after Day 17, esketamine responders (Day 17) per Day 1 randomization
[27] = Val/Val, Day 11 after Day 17, all responders (Day 17)
[28] = esketamine subjects, Days 2, 7, 17 and 35

CN[C@]1(c2ccccc2Cl)CCCCC1=O.Cl [Esketamine, (S)-2-(2-chlorophenyl)-2-(methylamino)cyclohexanone hydrochloride]
Non-responders % ([1]; Met carriers): 88.9%
Non-responders N ([1]; Met carriers): 8
Responders % (MADRS total score reduction >50% TRD2001, ≥50% TRD2002) ([1]; Met carriers): 11.1%
Responders N (MADRS total score reduction >50% TRD2001, ≥50% TRD2002) ([1]; Met carriers): 1
Non-responders % ([1]; Val/Val): 25.0%
Non-responders N ([1]; Val/Val): 2
Responders % (MADRS total score reduction >50% TRD2001, ≥50% TRD2002) ([1]; Val/Val): 75.0%
Responders N (MADRS total score reduction >50% TRD2001, ≥50% TRD2002) ([1]; Val/Val): 6
Clinical response associated with Met allele of Val66Met rs6265 ([1]; acute, single dose administration): smaller clinical response
Maintenance of remission, Val/Val vs Met carriers ([2]; Day 35): Remission was maintained longer in Val/Val than in Met carriers
Subjects who remained well, number ([2]; Met carrier group, at Day 21, from 6): 3
Day 17 responders who maintained response status up to Day 35, % ([2]; Met carriers (of 6)): 33.3%
Day 17 responders who maintained response status up to Day 35, number ([2]; Met carriers (of 6)): 2
Non-remitters % [2, 4]: 88.9%
Non-remitters No. [2, 4]: 8
Non-responders % [2, 4]: 88.9%
Non-responders No. [2, 4]: 8
Remitters % (MADRS total score 10) [2, 4]: 11.1%
Remitters No. (MADRS total score 10) [2, 4]: 1
Responders % (MADRS total score reduction >50%) [2, 4]: 11.1%
Responders No. (MADRS total score reduction >50%) [2, 4]: 1
Non-remitters % [2, 5]: 77.8%
Non-remitters No. [2, 5]: 7
Non-responders % [2, 5]: 66.7%
Non-responders No. [2, 5]: 6
Remitters % (MADRS total score 10) [2, 5]: 22.2%
Remitters No. (MADRS total score 10) [2, 5]: 2
Responders % (MADRS total score reduction >50%) [2, 5]: 33.3%
Responders No. (MADRS total score reduction >50%) [2, 5]: 3
Non-remitters % [2, 6]: 100.0%
Non-remitters No. [2, 6]: 1
Non-responders No. [2, 6]: 0
Remitters No. (MADRS total score 10) [2, 6]: 0
Responders % (MADRS total score reduction >50%) [2, 6]: 100.0%
Responders No. (MADRS total score reduction >50%) [2, 6]: 1
Non-remitters % [2, 7]: 77.8%
Non-remitters No. [2, 7]: 7
Non-responders % [2, 7]: 33.3%
Non-responders No. [2, 7]: 3
Remitters % (MADRS total score 10) [2, 7]: 22.2%
Remitters No. (MADRS total score 10) [2, 7]: 2
Responders % (MADRS total score reduction >50%) [2, 7]: 66.7%
Responders No. (MADRS total score reduction >50%) [2, 7]: 6
Non-remitters No. [2, 8]: 0
Non-responders No. [2, 8]: 0
Remitters % (MADRS total score 10) [2, 8]: 100.0%
Remitters No. (MADRS total score 10) [2, 8]: 1
Responders % (MADRS total score reduction >50%) [2, 8]: 100.0%
Responders No. (MADRS total score reduction >50%) [2, 8]: 1
Non-remitters % [2, 9]: 77.8%
Non-remitters No. [2, 9]: 7
Non-responders % [2, 9]: 55.6%
Non-responders No. [2, 9]: 5
Remitters % (MADRS total score 10) [2, 9]: 22.2%
Remitters No. (MADRS total score 10) [2, 9]: 2
Responders % (MADRS total score reduction >50%) [2, 9]: 44.4%
Responders No. (MADRS total score reduction >50%) [2, 9]: 4
Non-remitters No. [2, 10]: 0
Non-responders No. [2, 10]: 0
Remitters % (MADRS total score 10) [2, 10]: 100.0%
Remitters No. (MADRS total score 10) [2, 10]: 1
Responders % (MADRS total score reduction >50%) [2, 10]: 100.0%
Responders No. (MADRS total score reduction >50%) [2, 10]: 1
Duration of response, survival function estimate: Failure [2, 11]: 0
Duration of response, survival function estimate: Survival [2, 11]: 1.0000
Duration of response, survival function estimate: Failure [2, 12]: 0
Duration of response, survival function estimate: Survival [2, 12]: 1.0000
Duration of response, survival function estimate: Failure [2, 13]: 0.4286
Duration of response, survival function estimate: Survival [2, 13]: 0.5714
Duration of response, survival function estimate: Failure [2, 14]: 0.5000
Duration of response, survival function estimate: Survival [2, 14]: 0.5000
Duration of response, survival function estimate: Failure [2, 15]: 0.5714
Duration of response, survival function estimate: Survival [2, 15]: 0.4286
Duration of response, survival function estimate: Failure [2, 16]: 0.6667
Duration of response, survival function estimate: Survival [2, 16]: 0.3333
Day 17 responders who maintained response status up to Day 35, % [2, 17]: 100%
Day 17 responders who maintained response status up to Day 35, number [2, 17]: 7
Non-remitters % [2, 18]: 37.5%
Non-remitters No. [2, 18]: 3
Non-responders % [2, 18]: 25.0%
Non-responders No. [2, 18]: 2
Remitters % (MADRS total score 10) [2, 18]: 62.5%
Remitters No. (MADRS total score 10) [2, 18]: 5
Responders % (MADRS total score reduction >50%) [2, 18]: 75.0%
Responders No. (MADRS total score reduction >50%) [2, 18]: 6
Non-remitters % [2, 19]: 25.0%
Non-remitters No. [2, 19]: 2
Non-responders % [2, 19]: 25.0%
Non-responders No. [2, 19]: 2
Remitters % (MADRS total score 10) [2, 19]: 75.0%
Remitters No. (MADRS total score 10) [2, 19]: 6
Responders % (MADRS total score reduction >50%) [2, 19]: 75.0%
Responders No. (MADRS total score reduction >50%) [2, 19]: 6
Non-remitters % [2, 20]: 42.9%
Non-remitters No. [2, 20]: 3
Non-responders % [2, 20]: 28.6%
Non-responders No. [2, 20]: 2
Remitters % (MADRS total score 10) [2, 20]: 57.1%
Remitters No. (MADRS total score 10) [2, 20]: 4
Responders % (MADRS total score reduction >50%) [2, 20]: 71.4%
Responders No. (MADRS total score reduction >50%) [2, 20]: 5
Non-remitters % [2, 21]: 12.5%
Non-remitters No. [2, 21]: 1
Non-responders % [2, 21]: 12.5%
Non-responders No. [2, 21]: 1
Remitters % (MADRS total score 10) [2, 21]: 87.5%
Remitters No. (MADRS total score 10) [2, 21]: 7
Responders % (MADRS total score reduction >50%) [2, 21]: 87.5%
Responders No. (MADRS total score reduction >50%) [2, 21]: 7
Non-remitters % [2, 22]: 57.1%
Non-remitters No. [2, 22]: 4
Non-responders % [2, 22]: 28.6%
Non-responders No. [2, 22]: 2
Remitters % (MADRS total score 10) [2, 22]: 42.9%
Remitters No. (MADRS total score 10) [2, 22]: 3
Responders % (MADRS total score reduction >50%) [2, 22]: 71.4%
Responders No. (MADRS total score reduction >50%) [2, 22]: 5
Non-remitters % [2, 23]: 12.5%
Non-remitters No. [2, 23]: 1
Non-responders % [2, 23]: 12.5%
Non-responders No. [2, 23]: 1
Remitters % (MADRS total score 10) [2, 23]: 87.5%
Remitters No. (MADRS total score 10) [2, 23]: 7
Responders % (MADRS total score reduction >50%) [2, 23]: 87.5%
Responders No. (MADRS total score reduction >50%) [2, 23]: 7
Non-remitters % [2, 24]: 42.9%
Non-remitters No. [2, 24]: 3
Non-responders % [2, 24]: 42.9%
Non-responders No. [2, 24]: 3
Remitters % (MADRS total score 10) [2, 24]: 57.1%
Remitters No. (MADRS total score 10) [2, 24]: 4
Responders % (MADRS total score reduction >50%) [2, 24]: 57.1%
Responders No. (MADRS total score reduction >50%) [2, 24]: 4
Duration of response, survival function estimate: Failure [2, 25]: 0
Duration of response, survival function estimate: Survival [2, 25]: 1.0000
Duration of response, survival function estimate: Failure [2, 26]: 0
Duration of response, survival function estimate: Survival [2, 26]: 1.0000
Duration of response, survival function estimate: Failure [2, 27]: 0.0833
Duration of response, survival function estimate: Survival [2, 27]: 0.9167
Subjects who remain well, number ([2]; Val/Val, by Day 35, of 7): 7
Responders on Day 17, number ([2]; all esketamine subjects per Day 1 randomization (Val/Val and Met carriers)): 13
Remit rates, Val/Val vs Met carriers [2, 28]: remit rates were higher in Val/Val subjects than in Met carriers at all timepoints
Response rates, Val/Val vs Met carriers [2, 28]: response rates were higher in Val/Val subjects than in Met carriers
Potency or affinity for the NMDA receptor [3]: higher potency or affinity
